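Assay format: 96-well plates, 48-hour exposure. GI50 marks 50% less growth.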 Active and inactive are the calls of the source. Cut-off read from the data, not from the text of the source: active = GI50 up to about 1.1 µM and inactive = higher.
Tests used:
Test in all cases: NCI tumour cell line growth inhibition, 48 h
HCC 2998 = tested on: HCC 2998
EKVX = tested on: EKVX
NCI-H460 = tested on: NCI-H460
NCI/ADR-RES = tested on: NCI/ADR-RES
HL-60 = tested on: HL-60
T47D = tested on: T47D
OVCAR-4 = tested on: OVCAR-4
TK-10 = tested on: TK-10
BT-549 = tested on: BT-549
RXF 393 = tested on: RXF 393
M14 = tested on: M14
NCI-H522 = tested on: NCI-H522
ACHN = tested on: ACHN
UACC-257 = tested on: UACC-257
HCT-15 = tested on: HCT-15
SF-539 = tested on: SF-539
SNB-19 = tested on: SNB-19
MOLT-4 = tested on: MOLT-4
CAKI-1 = tested on: CAKI-1
OVCAR-8 = tested on: OVCAR-8

Row | Structure (SMILES) | GI50 (HCC 2998) | GI50 (EKVX) | GI50 (NCI-H460) | GI50 (NCI/ADR-RES) | GI50 (HL-60) | GI50 (T47D) | GI50 (OVCAR-4) | GI50 (TK-10) | GI50 (BT-549) | GI50 (RXF 393) | GI50 (M14) | GI50 (NCI-H522) | GI50 (ACHN) | GI50 (UACC-257) | GI50 (HCT-15) [µM] | GI50 (SF-539) | GI50 (SNB-19) | GI50 (MOLT-4) | GI50 (CAKI-1) | GI50 (OVCAR-8)
1 | NCCNc1nc(N2CCCC2)c2nc(Cl)c(NCc3ccccc3)nc2n1 | 1.51 µM (inactive) | 1.73 µM (inactive) | 1.85 µM (inactive) | 13.6 µM (inactive) | 1.97 µM (inactive) | 1.66 µM (inactive) | 2.16 µM (inactive) | 1.67 µM (inactive) | 1.98 µM (inactive) | 1.4 µM (inactive) | 1.67 µM (inactive) | 1.67 µM (inactive) | 1.95 µM (inactive) | 1.9 µM (inactive) | 1.95 | 1.96 µM (inactive) | 1.83 µM (inactive) | 2.13 µM (inactive) | 5.27 µM (inactive) | 1.76 µM (inactive)
2 | Cc1ccc([S+]([O-])(=Nc2ccccc2)C(C(C)C)C(C)(C)Cl)cc1 (centres undefined) | 21.6 µM (inactive) | 11.4 µM (inactive) | 4.21 µM (inactive) | 15 µM (inactive) | 7.67 µM (inactive) | 23.6 µM (inactive) | 22.2 µM (inactive) | 21.4 µM (inactive) | 18.1 µM (inactive) | 30.1 µM (inactive) | 18.9 µM (inactive) | 16 µM (inactive) | 31.6 µM (inactive) | 10.8 µM (inactive) | 17 | 15.9 µM (inactive) | 8.67 µM (inactive) | 10.5 µM (inactive) | 14.5 µM (inactive) | > 50 µM (inactive)
3 | CC1CC(Nc2ccc(Br)cc2)N(C(=O)c2ccc(Br)cc2)O1 (centres undefined) | > 10 µM (inactive) | > 10 µM (inactive) | 7.48 µM (inactive) | 2.19 µM (inactive) | 3.76 µM (inactive) | 9.77 µM (inactive) | > 10 µM (inactive) | > 10 µM (inactive) | > 10 µM (inactive) | > 10 µM (inactive) | > 10 µM (inactive) | 8.07 µM (inactive) | 0.678 µM (active) | 4.46 µM (inactive) | 0.526 | 3.52 µM (inactive) | > 10 µM (inactive) | 5.74 µM (inactive) | 4.61 µM (inactive) | 7.4 µM (inactive)
4 | CC[N+]1(C)CCC(O)(/C=C/c2ccc(OC)cc2)C(C(=O)/C=C/c2ccc(OC)cc2)C1 (centres undefined) | 20 µM (inactive) | 28.6 µM (inactive) | 9.53 µM (inactive) | 27.1 µM (inactive) | 1.52 µM (inactive) | 5.86 µM (inactive) | 24.7 µM (inactive) | 2.96 µM (inactive) | 20.1 µM (inactive) | 15.1 µM (inactive) | 10.4 µM (inactive) | 2.26 µM (inactive) | 8.36 µM (inactive) | 17.4 µM (inactive) | 9.98 | 5.35 µM (inactive) | 17.3 µM (inactive) | 1.94 µM (inactive) | 1.88 µM (inactive) | 23.3 µM (inactive)
5 | COc1ccc2c(c1)CN1C(=N2)CSC1c1ccccc1Cl (centres undefined) | 14.4 µM (inactive) | 16.6 µM (inactive) | 14.3 µM (inactive) | 10.1 µM (inactive) | 6.55 µM (inactive) | 27.7 µM (inactive) | 20.1 µM (inactive) | 23.7 µM (inactive) | 25.2 µM (inactive) | 14.4 µM (inactive) | 18.3 µM (inactive) | 12.9 µM (inactive) | 17.6 µM (inactive) | 13.4 µM (inactive) | 11.7 | 14.5 µM (inactive) | 28.6 µM (inactive) | 0.54 µM (active) | 29.1 µM (inactive) | 16.7 µM (inactive)
6 | C[N+](C)(C)CC(=O)N/N=C(/CC(=O)CC(C1=C(O)c2ccccc2OC1)c1ccccc1)C(=O)Nc1cccc(Cl)c1 (centres undefined) | > 100 µM (inactive) | > 100 µM (inactive) | > 10 µM (inactive) | > 100 µM (inactive) | > 100 µM (inactive) | > 100 µM (inactive) | > 100 µM (inactive) | > 100 µM (inactive) | > 100 µM (inactive) | > 100 µM (inactive) | > 100 µM (inactive) | > 100 µM (inactive) | > 100 µM (inactive) | > 100 µM (inactive) | > 100 | > 100 µM (inactive) |  | > 100 µM (inactive) | > 100 µM (inactive) | > 100 µM (inactive)
7 | CCN(CC)C1C(=O)NC1C#Cc1ccccc1 (centres undefined) | > 100 µM (inactive) | > 100 µM (inactive) | > 100 µM (inactive) | > 100 µM (inactive) | 36.6 µM (inactive) | 84.7 µM (inactive) | > 100 µM (inactive) | > 100 µM (inactive) | 61.9 µM (inactive) | > 100 µM (inactive) | > 100 µM (inactive) | 25 µM (inactive) | > 100 µM (inactive) | > 100 µM (inactive) | 96.6 | > 100 µM (inactive) | > 100 µM (inactive) | > 10 µM (inactive) | 38.4 µM (inactive) | > 100 µM (inactive)
